Data on eight compounds can be found in ChEMBL document CHEMBL1122842, “Beta-adrenoceptor activity of the stereoisomers of the bufuralol alcohol and ketone metabolites” (J Med Chem, 1985).

The target of this test is Beta-1 adrenergic receptor (Rattus norvegicus) (UniProt P18090). The note with it: Heart.
Chain of Beta-1 adrenergic receptor (Rattus norvegicus) (P18090 whole entry, looked up): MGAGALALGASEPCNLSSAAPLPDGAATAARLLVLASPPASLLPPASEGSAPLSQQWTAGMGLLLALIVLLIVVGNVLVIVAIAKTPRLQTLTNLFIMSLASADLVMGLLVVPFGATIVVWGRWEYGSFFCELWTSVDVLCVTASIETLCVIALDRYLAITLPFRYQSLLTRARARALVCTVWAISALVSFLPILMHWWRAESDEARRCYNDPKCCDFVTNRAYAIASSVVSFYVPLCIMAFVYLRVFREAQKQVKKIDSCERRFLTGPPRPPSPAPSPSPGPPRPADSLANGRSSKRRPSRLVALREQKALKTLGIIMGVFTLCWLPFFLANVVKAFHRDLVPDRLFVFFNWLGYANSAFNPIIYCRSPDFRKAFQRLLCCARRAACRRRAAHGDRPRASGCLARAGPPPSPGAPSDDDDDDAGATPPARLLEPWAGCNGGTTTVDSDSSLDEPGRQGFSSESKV

Description: Beta-1 adrenergic receptor agonist activity as increased heart rate by 30 beats/min in rats

In the case of `CC(=O)c1cccc2cc([C@@H](O)CNC(C)(C)C)oc12`, the ED30 was 0.0006 mg/kg.
Then `CC(=O)c1cccc2cc([C@H](O)CNC(C)(C)C)oc12`, with 0.032 mg/kg.
Then `CCc1cccc2cc([C@@H](O)CNC(C)(C)C)oc12`, with 0.053 mg/kg.
`CCc1cccc2cc([C@H](O)CNC(C)(C)C)oc12` had an ED30 above 1 mg/kg.
The figure for `CC(O)c1cccc2cc([C@@H](O)CNC(C)(C)C)oc12` (stereo in doubt; form 1) is 0.019 mg/kg; for `CC(O)c1cccc2cc([C@H](O)CNC(C)(C)C)oc12` (stereo in doubt; form 1) it is above 1 mg/kg.
Then `CC(O)c1cccc2cc([C@@H](O)CNC(C)(C)C)oc12` (stereo in doubt; form 2), with 0.0007 mg/kg; and `CC(O)c1cccc2cc([C@H](O)CNC(C)(C)C)oc12` (stereo in doubt; form 2), with 0.305 mg/kg.
